Converted amounts (≈) assume the structure as drawn.
What was measured:
[1] = relative bioavailability of oral formulations in rats (plasma DSB free acid); format: in vivo, Sprague Dawley rats; conditions: single oral 25 mg/kg; for Cmax: male, po
Experimental: The following study was conducted to compare the relative bioavailability of oral formulations prepared with DSB•2NMG Form I and amorphous DSB•2NMG.
Groups of four male Sprague Dawley rats with surgically implanted jugular cannulas were given a single oral 25 mg/kg dose of DSB•2NMG (Form I or amorphous) in one of six formulations: • Group 1: 10% hydroxypropyl-β-cyclodextrin solution of amorphous DSB•2NMG; • Group 2: 10% hydroxypropyl-β-cyclodextrin solution of DSB•2NMG Form I; • Group 3: Suspension of DSB•2NMG Form I in 0.5% carboxymethylcellulose; • Group 4: Solution of DSB•2NMG Form I in 1% ethanol/10% polyethylene glycol 400/89% water; • Group 5: Solution of DSB•2NMG Form I in 10% propylene glycol/90% water; and • Group 6: Solution of DSB•2NMG Form I in water.

physchem = conditions: 25 °C, organic solvent or mixture, approximate solubility
[2] = male rats, carboxymethylcellulose, ethanol/PEG 400/water, propylene glycol/water and water formulations

area under the plasma concentration-time curve from time zero extrapolated to infinity (AUCINF) ([1]; male rats, 10% hydroxypropyl-β-cyclodextrin solution, average, 25 mg/kg) [µg·h/mL]	exposure to DSB free acid among Form I formulations ([1]; male rats, 10% propylene glycol/water vehicle, FIG. 9)	AUCINF, times greater than from Form I given in hydroxypropyl-β-cyclodextrin [1, 2]	DSB free acid concentrations versus Form I given in 10% hydroxypropyl-β-cyclodextrin [1, 2]	plasma concentration profile compared to amorphous DSB•2NMG formulation ([1]; male rats, hydroxypropyl-cyclodextrin formulation, FIG. 8)	Cmax ([1]; Sprague-Dawley, rat, plasma, 25 mg/kg, solution in 1% ethanol/10% polyethylene glycol 400/water, average) [ng/mL]	Cmax ([1]; Sprague-Dawley, rat, plasma, 25 mg/kg, solution in 10% propylene glycol/water, average) [ng/mL]	Cmax ([1]; Sprague-Dawley, rat, plasma, 25 mg/kg, solution in water, average) [ng/mL]	Cmax ([1]; Sprague-Dawley, rat, plasma, 25 mg/kg, suspension in 0.5% carboxymethylcellulose, average) [ng/mL]	solubility (physchem; 1-butanol) [µg/mL]	solubility (physchem; 1-propanol) [µg/mL]	solubility (physchem; 2-butanol) [µg/mL]	solubility (physchem; 2-propanol) [µg/mL]	solubility (physchem; acetone) [µg/mL]	solubility (physchem; dimethyl formamide) [µg/mL]	solubility (physchem; ethanol) [µg/mL]	AUC(0-inf) ([1]; Sprague-Dawley, rat, plasma, male rats, 10% hydroxypropyl-β-cyclodextrin solution, average, read-out: area under the plasma concentration-time curve from time zero extrapolated to infinity (AUCINF)) [ng·h/mL]	Structure (SMILES)
23.44	greatest exposure	1.5-2 times	greater	equivalent plasma concentration profiles	8490	10400	9770	8200	< 3000	~5000 (≈ 8.55 mM)	< 3000	< 3000	< 3000	> 50000	~5000 (≈ 8.55 mM)		C=C(C)[C@@H]1CC[C@]2(C(=O)O)CC[C@]3(C)[C@H](CC[C@@H]4[C@@]5(C)CC[C@H](OC(=O)CC(C)(C)C(=O)O)C(C)(C)[C@@H]5CC[C@]43C)[C@@H]12 [DSB•2NMG Form I, 3-O-(3′,3′-dimethylsuccinyl)betulinic acid di-N-methyl-D-glucamine]
																21500	C=C(C)[C@@H]1CC[C@]2(C(=O)O)CC[C@]3(C)[C@H](CC[C@@H]4[C@@]5(C)CC[C@H](OC(=O)CC(C)(C)C(=O)O)C(C)(C)[C@@H]5CC[C@]43C)[C@@H]12 [amorphous DSB•2NMG, 3-O-(3′,3′-dimethylsuccinyl)betulinic acid di-N-methyl-D-glucamine]
